Source: publication PMC7835231, “Human organoid biofilm model for assessing antibiofilm activity of novel agents” (NPJ Biofilms and Microbiomes, 2021)
Entries after “also recorded” stand apart in the source; their conditions may differ.

Tests used:
[1] = system: MRSA-lux (MRSA SAP149) biofilm; assay: One-day or three-day MRSA-lux biofilm on N/TERT epidermal skin model, CFU count and luminescence; assay type: cell-based, Staphylococcus aureus; details: for antibiofilm activity (CFU recovered) against pre-established MRSA-lux biofilm: peptide 0.1% topical, 5 to 6 biological replicates, Kruskal–Wallis, Dunn's test versus control; for geometric mean of MRSA-lux bacteria recovered: untreated 1.3 × 10^8 CFU/skin, geometric mean of 3 to 9 biological replicates
From the text: (§1) Bacterial strains used in this study include USA300-LAC[56] (referred to as MRSA), and a luminescent MRSA strain SAP149[57] (referred to as MRSA-lux), Pseudomonas aeruginosa strain PAO1[58] and a luminescent strain of P. aeruginosa[59] (PAO1-lux). Bacteria strains used for confocal microscopy imaging include S. aureus USA300-LAC transformed with a pKK22 plasmid expressing a far-red fluorescent protein (MRSA-FarRed), as well as P. aeruginosa PAO1 (PAO1-mCherry), transformed with an mCherry expressing plasmid, pMCh-23[60]. All S. aureus strains were grown overnight in TSB containing 1% D-glucose at 37 °C with shaking at 180 rpm, sub-cultured to mid-exponential growth phase in TSB 1% D-glucose. Bacteria were harvested and resuspended in sterile PBS to a concentration of 2 × 10^8 CFU/ml before seeding onto skin surface. All P. aeruginosa strains were grown in LB under the same conditions as mentioned above, subcultured in LB medium, and resuspended in PBS at 2 × 10^8 CFU/ml before seeding.
(§2) Skin models were established using a modification of described methods. Briefly, 3 × 10^5 N/TERT cells in 400 μl DermaLife K Keratinocyte Complete Medium with LifeFactors (5 μg/ml rh Insulin LifeFactor, 6 mM L-Glutamine LifeFactor, 1 μM Epinephrine LifeFactor, 5 μg/ml Apo-Transferrin LifeFactor, 0.5 ng/ml rh TGF-α LifeFactor, 0.4% Extract P LifeFactor, 100 ng/ml Hydrocortisone Hemisuccinate LifeFactor) were seeded onto each filter insert (ThinCert™ Cell culture insert, Greiner bio-one, Kremsmünster, Austria) in a 12-well ThinCert™ Plate (Greiner bio-one) holding 4.1 ml/well DermaLife K Keratinocyte Complete Medium with LifeFactors below each filter. Medium was refreshed every second day until N/TERT cells reached confluency in 3-4 days. Culture media both on top and below the filter were then switched to DMEM/Ham’s F-12/CnT-Prime 3D Barrier Media in a 3:1:4 ratio supplemented with 0.1 μg/ml hydrocortisone, 0.125 μg/ml isoproterenol, 0.25 μg/ml bovine insulin, 26.5 pM selenious acid, 5 mM L-serine, 5 μM L-carnitine, 1.6 mg/ml BSA, 25 μM palmitic acid, 15 μM linoleic acid and 7 μM arachidonic acid. Medium on top of the filters was removed the next day to allow air-exposure, which induced differentiation and stratification of the epidermis. After 2–3 days, linoleic acid concentration was increased to 30 μM. The skin samples were cultured for 10 days at air–liquid interface at 37 °C and 7.3% CO2 with medium being refreshed every 2–3 days.
(§3) One million MRSA or PAO1, or luminescent MRSA-lux or PAO1-lux, or fluorescently-tagged MRSA-FarRed or PAO1-mCherry resuspended in PBS were seeded (5 μl of 2 × 10^8 CFU/ml) in the center of the skin model, cultured at 37 °C and 7.3% CO2 to allow the establishment of bacterial biofilms. One day or three days after inoculation, 30 μl of 0.1% (1 mg/ml) or 0.4% (4 mg/ml) DJK-5 peptide was added on top of the biofilm for 4 h. […] To visualize biofilms, skin samples seeded with luminescent bacteria were imaged using the ChemiDoc Imaging System (Bio-Rad). To quantify bacterial counts, skin samples, together with the filter inserts, were excised using a disposable scalpel (VWR, Radnor, PA), sonicated in 1.5 ml PBS, vortexed, serially diluted, and plated on LB agar plates. The cut-off of the Y-axis in each figure indicates the detection limit of CFU count while bars indicate the geometric mean of recovered CFU.

[2] = system: PAO1-lux biofilm; assay: One-day or three-day PAO1-lux biofilm on N/TERT epidermal skin model, CFU count and luminescence; assay type: cell-based, Pseudomonas aeruginosa; details: for antibiofilm activity (CFU recovered) against pre-established PAO1-lux biofilm: peptide 0.1% topical, 4 h, 5 to 6 biological replicates, Kruskal–Wallis, Dunn's test versus control
From the text: as §1, §2, §3

[3] = system: MRSA (USA300-LAC) biofilm on burned skin; assay: MRSA USA300 thermal wounding skin model, colony count; assay type: cell-based, Staphylococcus aureus
Experimental: as §3
Thermal damage was created by burning 10-day air–liquid interface skins at 100 °C for 4 s with a digital soldering iron (FX888D, American Hakko Products, Inc., Santa Clarita, CA). The skin filter inserts were transferred to 12-well plates (Sigma-Aldrich) containing 800 μl/well fresh culture medium prior to bacterial infection. MRSA biofilm was established by seeding 2 × 10^6 CFU in 5 μl PBS on top of the thermal damaged skin and cultured at 37 °C and 5% CO2 for 24 h. […]

[4] = system: N/TERT epidermal skin; assay type: cell-based, human
Experimental: (§4) Thermal damage was created by burning 10-day air–liquid interface skins at 100 °C for 4 s with a digital soldering iron (FX888D, American Hakko Products, Inc., Santa Clarita, CA). The skin filter inserts were transferred to 12-well plates (Sigma-Aldrich) containing 800 μl/well fresh culture medium prior to bacterial infection. MRSA biofilm was established by seeding 2 × 10^6 CFU in 5 μl PBS on top of the thermal damaged skin and cultured at 37 °C and 5% CO2 for 24 h. DJK-5 peptide (30 μl of 0.4%) alone or in combination with 0.01%, 0.1%, or 0.4% 1002 was administered on top of the pre-formed biofilm. Skin samples were collected 24 h post peptide treatment for colony count.
(§5) At the time of colony quantification, culture supernatants below the skin filter inserts were harvested for measuring cytotoxicity by the lactate dehydrogenase assay using a Cytotoxicity Detection Kit (Roche Diagnostics, Basel, Switzerland), according to the manufacturer’s instructions. Untreated skin samples or skin samples treated with 5% Triton X-100 were used as negative (0% toxicity) or positive (100% toxicity) control, respectively. Culture supernatants were also used to measure IL-1β and IL-8 production using ELISA kits from eBioscience (San Diego, CA).

[5] = system: IL-1β production; assay: IL-1β ELISA of culture supernatant, MRSA-infected burned skin; assay type: cell-based, human
Experimental: as §4, §5

[6] = system: P. aeruginosa PAO1 biofilm; assay: One-day PAO1 biofilm on N/TERT epidermal skin model, CFU count; assay type: cell-based, Pseudomonas aeruginosa; details: 1-day biofilm; 0.4% (120 µg) DJK-5, 4 h; control 1.3 × 10^8 CFU/skin; geometric mean of 5 to 8 biological replicates
From the text: as §1, with “All P. aeruginosa strains were grown in LB under the same conditions as mentioned above, subcultured in LB medium, and resuspended in PBS at 2 × 10^8 CFU/ml before seeding.” left out
One million MRSA or PAO1, or luminescent MRSA-lux or PAO1-lux, or fluorescently-tagged MRSA-FarRed or PAO1-mCherry resuspended in PBS were seeded (5 μl of 2 × 10^8 CFU/ml) in the center of the skin model, cultured at 37 °C and 7.3% CO2 to allow the establishment of bacterial biofilms. […] To quantify bacterial counts, skin samples, together with the filter inserts, were excised using a disposable scalpel (VWR, Radnor, PA), sonicated in 1.5 ml PBS, vortexed, serially diluted, and plated on LB agar plates. […]

[7] = system: IL-8 production; assay: IL-8 ELISA of culture supernatant, MRSA-infected burned skin; assay type: cell-based, human; details: burned skin with MRSA biofilm; 0.4% DJK-5, 24 h; ELISA of media below filter
Experimental: as §4, §5

[8] = system: IL-8 production; assay type: cell-based, human
From the text: as §5, with “CA). […]” for “CA).”
(§6) Supplementary Fig 4. Burned skin without infection and 2-day biofilm on skin without thermal damage had minimal changes in cytotoxicity and cytokine production compared to skin control without infection and thermal damage.
(§7) Thermally damaged epidermal skin was mock infected with PBS for 24 hours, followed by 24 hours treatment with 0.4% DJK-5 or water (a, b). The cytotoxicity (a) and IL-8 production (b) from culture supernatant beneath skin was determined. One day pre-established MRSA-lux and PAO1-lux skin biofilm was treated with vehicle control-water for 24 hours, changes in luminescence signal (c), bacteria load (d), skin cytotoxicity (e) and IL-8 level (f) was quantified. Error bars indicate mean with SD (n=3). One-way ANOVA, Dunnett’s multiple comparisons test (* P ≤ 0.05; ** P ≤ 0.01). […]

[9] = system: N/TERT epidermal skin; assay type: cell-based, human; remark: listed apart in the source
From the text: as §5, with “CA). […]” for “CA).”
as §6, §7

C/C(=C\C(=O)OCCCCCCCCC(=O)O)C[C@@H]1OC[C@H](C[C@@H]2O[C@H]2[C@@H](C)[C@H](C)O)[C@@H](O)[C@H]1O [mupirocin, reference compound]
bacterial load of MRSA-lux in the biofilm ([1]; 1-day biofilm, 1% mupirocin dissolved in 10% DMSO, topical, 4 h): did not have appreciable impact; also recorded: almost inactive

KRIRWVILWRQV [RI-1002, synthetic host defense peptide]
antibiofilm activity (CFU recovered) against pre-established MRSA-lux biofilm ([1]; 1-day biofilm, 4 h): comparable antibiofilm activity against MRSA-lux and PAO1-lux
antibiofilm activity (CFU recovered) against pre-established PAO1-lux biofilm ([2]; 1-day biofilm): comparable antibiofilm activity against MRSA-lux and PAO1-lux

VRLIVAVRIWRR [compound 1018, synthetic host defense peptide]
antibiofilm activity (CFU recovered) against pre-established MRSA-lux biofilm ([1]; 1-day biofilm, 4 h): superior effects in eradicating MRSA-lux biofilms; also recorded: superior activity in eradicating MRSA biofilm

VQRWLIVWRIRK [compound 1002, Innate defense regulator peptide, a bactenecin derivative; anti-inflammatory synthetic HDP]
antibiofilm activity (CFU recovered) against pre-established MRSA-lux biofilm ([1]; 1-day biofilm, 4 h): All of the peptides except 1002 significantly reduced
antibiofilm activity (CFU recovered) against pre-established PAO1-lux biofilm ([2]; 1-day biofilm): All of the peptides except 1002 significantly reduced
reduction in bacterial count compared to untreated biofilms ([3]; burned skin with MRSA biofilm, 0.4% 1002 alone, 24 h): 17 fold
cytotoxicity from MRSA infected burned skin [4]: significant decreases
pro-inflammatory IL-1β release from MRSA infected burned skin ([5]; 1002 treatment alone, 24 h, ELISA): significant decreases

VQWRRIRVWVIR [DJK-6, synthetic host defense peptide]
antibiofilm activity (CFU recovered) against pre-established MRSA-lux biofilm ([1]; 1-day biofilm, 4 h): superior effects in eradicating MRSA-lux biofilms; also recorded: superior activity in eradicating MRSA biofilm

VQWRAIRVRVIR [DJK-5, D-enantiomeric antibiofilm synthetic host defense peptide]
luminescence of MRSA-lux biofilm ([1]; 1-day biofilm, 0.1% (30 μg total peptide), 4 h, ChemiDoc imaging): reduced the area of colonization
geometric mean of MRSA-lux bacteria recovered ([1]; 1-day biofilm, 0.1% DJK-5 (30 μg) topical, 4 h): 1.6 × 10^6 CFU/skin
luminescence of MRSA-lux biofilm ([1]; 1-day biofilm, 0.4% (120 μg), 4 h, ChemiDoc imaging): completely abolished the luminescence
geometric mean of MRSA-lux bacteria recovered ([1]; 1-day biofilm, 0.4% DJK-5 (120 μg) topical, 4 h): 2.1 × 10^4 CFU/skin
antibiofilm activity (CFU recovered) against pre-established MRSA-lux biofilm ([1]; 1-day biofilm, 4 h): comparable antibiofilm activity against MRSA-lux and PAO1-lux; also recorded: superior activity in eradicating MRSA biofilm
reduction of bacterial load ([1]; 3-day MRSA-lux biofilm, 0.4% DJK-5, within 4 h of treatment, versus untreated): 4 log orders of magnitude
luminescence of MRSA-lux biofilm ([1]; 3-day biofilm, 0.4% DJK-5, 4 h): successfully wiped out the bacterial luminescence
geometric mean of recovered PAO1-lux bacteria ([2]; 1-day biofilm, 0.4% (120 µg) DJK-5, 4 h, control 8.9 × 10^7 CFU/skin, geometric mean of 5 to 8 biological replicates): 1.9 × 10^2 CFU/skin
luminescence of PAO1-lux biofilm ([2]; 1-day biofilm, 0.4% DJK-5, 4 h): evident reduction in the luminescence signal
antibiofilm activity (CFU recovered) against pre-established PAO1-lux biofilm ([2]; 1-day biofilm): comparable antibiofilm activity against MRSA-lux and PAO1-lux
bacterial burden (colony count) ([2]; 3-day PAO1-lux biofilm, 0.4% DJK-5, 4 h): significantly decreased bacterial burden
luminescence of PAO1-lux biofilm ([2]; 3-day biofilm, 0.4% DJK-5, 4 h): wiped out luminescence signal
geometric mean of recovered non-luminescent PAO1 bacteria [6]: 4.9 × 10^3 CFU/skin
bacterial load on burned skin ([3]; skin burned 100 °C 4 s, 24 h MRSA biofilm, 0.4% DJK-5 (120 μg) in PBS topical, control 7.8 × 10^8 CFU/skin, geometric mean): 3.2 × 10^5 CFU/skin
IL-1β production ([5]; burned skin with MRSA biofilm, 0.4% DJK-5, 24 h, ELISA of media below filter): significantly suppressed
IL-8 production [7]: significantly suppressed
IL-8 production compared to control skin [8]: slightly increased IL-8 production
increase in observed cytotoxicity compared to control skin [9]: ~ 5%

RRWIRVAVILRV [RI-1018, synthetic host defense peptide]
antibiofilm activity (CFU recovered) against pre-established MRSA-lux biofilm ([1]; 1-day biofilm, 4 h): comparable antibiofilm activity against MRSA-lux and PAO1-lux
antibiofilm activity (CFU recovered) against pre-established PAO1-lux biofilm ([2]; 1-day biofilm): comparable antibiofilm activity against MRSA-lux and PAO1-lux
